Patent publication US4048202A (priority 1975, dated 1977)
In brackets after ≈: the same amount, converted by molar mass. Where two headings read alike, the source gives them in different places.

Legend:
Test in all cases: microbe, parasite or virus in culture
[1] = system: C. paraputrificum (ATCC 1620-23); assay type: cell-based; conditions: Clostridium paraputrificum, read-out: Minimum Inhibitory Concentrations
[2] = system: B.subtilis; assay type: cell-based; conditions: Bacillus subtilis, read-out: Minimum Inhibitory Concentrations
[3] = system: C.perfingens (ATCC 1620-19); assay type: cell-based, Clostridium perfingens; conditions: Clostridium, read-out: Minimum Inhibitory Concentrations
[4] = system: C.perfingens (ATCC 13124); assay type: cell-based, Clostridium perfingens; conditions: Clostridium, read-out: Minimum Inhibitory Concentrations
[5] = system: C.botulinum (ATCC 19397); assay type: cell-based; conditions: Clostridium botulinum
[6] = ATCC19397, pH 5, read-out: Minimum Inhibitory Concentrations
[7] = ATCC19397, pH 7, read-out: Minimum Inhibitory Concentrations

With `CCCCCCCCCC(=O)OCC(O)C(=O)O` (stereo not shown) [R=9, 3-O-decanoylglyceric acid] the MIC ([1]; ATCC1620, pH 5) was 10 µg/mL (≈ 38.4 µM), the MIC ([1]; ATCC1620, pH 7) was 100 µg/mL (≈ 384 µM) and the MIC ([2]; pH 5) was 10 µg/mL (≈ 38.4 µM). The MIC ([2]; pH 7) was 1000 µg/mL (≈ 3840 µM), the MIC ([3]; ATCC1620, pH 5) was 10 µg/mL (≈ 38.4 µM) and the MIC ([3]; ATCC1620, pH 7) was 100 µg/mL (≈ 384 µM). The MIC ([4]; ATCC13124, pH 5) was 10 µg/mL (≈ 38.4 µM), the MIC ([4]; ATCC13124, pH 7) was 10 µg/mL (≈ 38.4 µM) and the MIC [5, 6] was 10 µg/mL (≈ 38.4 µM). For the same compound, the MIC [5, 7] was 10 µg/mL (≈ 38.4 µM).

`CCCCCCCCCCCCC(=O)OCC(O)C(=O)O` (stereo not shown) [R=12, 3-O-tridecanoylglyceric acid] showed an MIC ([1]; ATCC1620, pH 5) of 10 µg/mL (≈ 33.1 µM), an MIC ([1]; ATCC1620, pH 7) of 100 µg/mL (≈ 331 µM) and an MIC ([2]; pH 5) of 10 µg/mL (≈ 33.1 µM). It also gave an MIC ([2]; pH 7) of 1000 µg/mL (≈ 3310 µM), an MIC ([3]; ATCC1620, pH 5) of 10 µg/mL (≈ 33.1 µM) and an MIC ([3]; ATCC1620, pH 7) of 10 µg/mL (≈ 33.1 µM). For the same compound, the MIC ([4]; ATCC13124, pH 5) was 10 µg/mL (≈ 33.1 µM), the MIC ([4]; ATCC13124, pH 7) was 100 µg/mL (≈ 331 µM) and the MIC [5, 6] was 10 µg/mL (≈ 33.1 µM). The MIC [5, 7] was 100 µg/mL (≈ 331 µM).

`CCCCCCCCCCCCCCCC(=O)OCC(O)C(=O)O` (stereo not shown) [R=15, 3-O-hexadecanoylglyceric acid] was tested, and the MIC ([1]; ATCC1620, pH 5) was 10 µg/mL (≈ 29 µM), the MIC ([1]; ATCC1620, pH 7) was 1000 µg/mL (≈ 2900 µM) and the MIC ([2]; pH 5) was over 10000 µg/mL. For the same compound, the MIC ([2]; pH 7) was 10000 µg/mL (≈ 29000 µM), the MIC ([3]; ATCC1620, pH 5) was 100 µg/mL (≈ 290 µM) and the MIC ([3]; ATCC1620, pH 7) was 100 µg/mL (≈ 290 µM). It also gave an MIC ([4]; ATCC13124, pH 5) of 10 µg/mL (≈ 29 µM), an MIC ([4]; ATCC13124, pH 7) of 1000 µg/mL (≈ 2900 µM) and an MIC [5, 6] of 100 µg/mL (≈ 290 µM). The MIC [5, 7] was 1000 µg/mL (≈ 2900 µM).

For `CCCCCC(=O)OCC(O)C(=O)O` (stereo not shown) [R=5, 3-O-hexanoylglyceric acid], the MIC ([1]; ATCC1620, pH 5) was 10 µg/mL (≈ 49 µM), the MIC ([1]; ATCC1620, pH 7) was 1000 µg/mL (≈ 4900 µM) and the MIC ([2]; pH 5) was 10 µg/mL (≈ 49 µM). It also gave an MIC ([2]; pH 7) of 10000 µg/mL (≈ 49000 µM), an MIC ([3]; ATCC1620, pH 5) of 10 µg/mL (≈ 49 µM) and an MIC ([3]; ATCC1620, pH 7) of 1000 µg/mL (≈ 4900 µM). It also gave an MIC ([4]; ATCC13124, pH 5) of 100 µg/mL (≈ 490 µM), an MIC ([4]; ATCC13124, pH 7) of 1000 µg/mL (≈ 4900 µM) and an MIC [5, 6] of 10 µg/mL (≈ 49 µM). The MIC [5, 7] was 100 µg/mL (≈ 490 µM).
